± gives the expanded uncertainty stated by the source.
Key:
[1] = 298.15 K, 101.33 kPa, Liquid; for speed of sound: Sing-around technique in a fixed-path interferometer; for mass density: Vibrating tube method
[2] = excess molar enthalpy (molar enthalpy of mixing); xn = mol fraction of the nth substance listed; settings: 298.15 K, 101 kPa, Liquid, Calvet calorimetry

CCn1cc[n+](C)c1.F[B-](F)(F)F [1-ethyl-3-methylimidazolium tetrafluoroborate]
[1]
Settings | mass density [kg/m3] | speed of sound [m/s]
– | 1279.91 ± 1.5 | 1619.4 ± 2.4

CCn1cc[n+](C)c1.F[B-](F)(F)F [1-ethyl-3-methylimidazolium tetrafluoroborate] + O
[2]
Settings | excess molar enthalpy [kcal/mol]
x1 = 0.1136 | 0.0374 ± 0.0186
x1 = 0.1678 | 0.0537 ± 0.0263
x1 = 0.2249 | 0.0693 ± 0.0335
x1 = 0.2734 | 0.0812 ± 0.0406
x1 = 0.331 | 0.0934 ± 0.0478
x1 = 0.3615 | 0.0989 ± 0.0502
x1 = 0.4325 | 0.109 ± 0.055
x1 = 0.4709 | 0.112 ± 0.0574
x1 = 0.5314 | 0.115 ± 0.0574
x1 = 0.5722 | 0.115 ± 0.0574
x1 = 0.6291 | 0.113 ± 0.0574
x1 = 0.6685 | 0.109 ± 0.055
x1 = 0.7311 | 0.0986 ± 0.0502
x1 = 0.771 | 0.0898 ± 0.0454
x1 = 0.8324 | 0.0724 ± 0.0359
x1 = 0.8694 | 0.0596 ± 0.0287
x1 = 0.9103 | 0.0434 ± 0.0217
x1 = 0.9311 | 0.0343 ± 0.0172

O=C1CCCN1 [2-pyrrolidinone]
[1]
Settings | mass density [kg/m3] | speed of sound [m/s]
– | 1107.15 ± 0.23 | 1633.9 ± 1.5

O=C1CCCN1 [2-pyrrolidinone] + O
[2]
Settings | excess molar enthalpy [kcal/mol]
x1 = 0.1013 | -0.0589 ± 0.0287
x1 = 0.136 | -0.0776 ± 0.0382
x1 = 0.1745 | -0.0978 ± 0.0478
x1 = 0.2319 | -0.125 ± 0.0621
x1 = 0.2775 | -0.145 ± 0.0717
x1 = 0.3351 | -0.166 ± 0.0837
x1 = 0.3813 | -0.18 ± 0.0908
x1 = 0.4343 | -0.193 ± 0.0956
x1 = 0.4783 | -0.2 ± 0.1
x1 = 0.5401 | -0.205 ± 0.103
x1 = 0.5713 | -0.206 ± 0.103
x1 = 0.6264 | -0.201 ± 0.1
x1 = 0.6771 | -0.192 ± 0.0956
x1 = 0.7314 | -0.177 ± 0.0884
x1 = 0.7693 | -0.162 ± 0.0813
x1 = 0.8326 | -0.13 ± 0.0645
x1 = 0.8951 | -0.0899 ± 0.0454
x1 = 0.9204 | -0.0708 ± 0.0359

O=C1CCCN1 [2-pyrrolidinone] + c1ccncc1
[2]
Settings | excess molar enthalpy [kcal/mol]
x1 = 0.1213 | 0.0217 ± 0.0108
x1 = 0.1715 | 0.029 ± 0.0146
x1 = 0.2336 | 0.0366 ± 0.0182
x1 = 0.2615 | 0.0394 ± 0.0198
x1 = 0.3255 | 0.0446 ± 0.0222
x1 = 0.3701 | 0.0471 ± 0.0237
x1 = 0.4291 | 0.0489 ± 0.0239
x1 = 0.4711 | 0.0493 ± 0.0239
x1 = 0.5256 | 0.0485 ± 0.0239
x1 = 0.5713 | 0.0469 ± 0.0234
x1 = 0.6364 | 0.0431 ± 0.0215
x1 = 0.6716 | 0.0404 ± 0.0203
x1 = 0.7315 | 0.0348 ± 0.0174
x1 = 0.7619 | 0.0315 ± 0.0158
x1 = 0.8311 | 0.0232 ± 0.0117
x1 = 0.8751 | 0.0174 ± 0.0086
x1 = 0.9204 | 0.0112 ± 0.00574
x1 = 0.9344 | 0.00927 ± 0.00454

CN1CCCC1=O [N-methylpyrrolidone]
[1]
Settings | mass density [kg/m3] | speed of sound [m/s]
– | 1028.23 ± 0.25 | 1546 ± 1.6

c1ccncc1 [pyridine]
[1]
Settings | mass density [kg/m3] | speed of sound [m/s]
– | 978.252 ± 0.2 | 1417.8 ± 1.5

c1ccncc1 [pyridine] + CN1CCCC1=O
[2]
Settings | excess molar enthalpy [kcal/mol]
x2 = 0.0911 | -0.0363 ± 0.0182
x2 = 0.1426 | -0.052 ± 0.0263
x2 = 0.1985 | -0.0669 ± 0.0335
x2 = 0.2312 | -0.0755 ± 0.0382
x2 = 0.2854 | -0.086 ± 0.043
x2 = 0.312 | -0.0903 ± 0.0454
x2 = 0.3789 | -0.097 ± 0.0478
x2 = 0.443 | -0.103 ± 0.0526
x2 = 0.4995 | -0.104 ± 0.0526
x2 = 0.5478 | -0.102 ± 0.0502
x2 = 0.5851 | -0.1 ± 0.0502
x2 = 0.6359 | -0.0959 ± 0.0478
x2 = 0.6982 | -0.0895 ± 0.0454
x2 = 0.725 | -0.0852 ± 0.043
x2 = 0.7732 | -0.0742 ± 0.0382
x2 = 0.8489 | -0.0552 ± 0.0287
x2 = 0.8923 | -0.0427 ± 0.0213
x2 = 0.9156 | -0.0345 ± 0.0172
